Source: article PMC7714071, “Interaction of amyloid beta with humanin and acetylcholinesterase is modulated by ATP” (FEBS Open Bio, 2020)

Test system: Aβ40
Assay: ELISA, binding of biotinylated-HN to immobilised Aβ40
Conditions: Aβ 100 nM on wells, biotinylated-HN 300 nM, increasing HS; three independent assays; Fig. 2B
Protocol: ELISAs were carried out as we previously reported. Nunc MaxiSorp 96‐well flat bottom plate (Thermo Fisher) wells were coated with samples as indicated. The plates were incubated overnight at 4 °C on a shaker to allow binding of the samples to the plate wells. After the incubation, the wells were washed 4× with TBST, filled with 400 µL blocking buffer (110 mM KCl, 5 mM NaHCO3, 5 mM MgCl2, 1 mM EGTA, 0.1 mM CaCl2, 20 mM HEPES, 1% BSA, pH 7.4), and incubated with shaking overnight at 4 °C. The wells were then washed 4× with TBST, and 100 µL of sample at the desired concentration was added to each well and incubated with shaking overnight at 4 °C. TBST was then used to wash the wells 4× before proceeding in one of two ways: (a) biotinylated samples were analyzed by adding 100 µL streptavidin–HRP conjugate in TBST (1 : 2500 dilution) to the samples followed by incubation for 3 h at RT on a shaker, or (b) samples without biotin were analyzed by adding 100 µL TBST containing the primary antibody as per the manufacturer's recommendation, incubating for 3 h at RT on a shaker, followed by washing the wells 4× with TBST. […] The reaction was stopped with 100 µL 2 M H2SO4 after incubating at RT for 0.5–15 min, resulting in a yellow color change, measured by absorbance at 450 nm. […] Statistical analysis was determined by the […] […] Data were expressed as the mean ± SD. […]

heparan sulfate [HS]
effect of HS on binding of HN to Aβ40: No effects
